Results reported in paper PMC8864165, “Functional Effects of ARV-1502 Analogs Against Bacterial Hsp70 and Implications for Antimicrobial Activity” (Frontiers in Chemistry, 2022).
In brackets after ≈: the same amount, converted by molar mass. Square brackets hold non-standard residues; d marks the D form. Peptide text beside a SMILES is read from it. * marks the point of attachment. 5FAM = O=C1OC2(c3ccc(O)cc3Oc3cc(O)ccc32)c2ccc(C(=O)*)cc21; Ac6c = NC1(C(=O)O)CCCCC1

Assays:
[1] = biological target: T1, E. coli DnaK (Escherichia coli, UniProt P0A6Y8); assay: ATPase activity assay (malachite green), DnaK alone; format: biochemical; conditions: ARV-1502 concentration series, plateau
T1 construct: His6-tag with TEV site ([…]) (N, cleaved yes); made in house; host or cells: E. coli (DE3) Rosetta pLysS
T1 sequence (P0A6Y8 whole entry): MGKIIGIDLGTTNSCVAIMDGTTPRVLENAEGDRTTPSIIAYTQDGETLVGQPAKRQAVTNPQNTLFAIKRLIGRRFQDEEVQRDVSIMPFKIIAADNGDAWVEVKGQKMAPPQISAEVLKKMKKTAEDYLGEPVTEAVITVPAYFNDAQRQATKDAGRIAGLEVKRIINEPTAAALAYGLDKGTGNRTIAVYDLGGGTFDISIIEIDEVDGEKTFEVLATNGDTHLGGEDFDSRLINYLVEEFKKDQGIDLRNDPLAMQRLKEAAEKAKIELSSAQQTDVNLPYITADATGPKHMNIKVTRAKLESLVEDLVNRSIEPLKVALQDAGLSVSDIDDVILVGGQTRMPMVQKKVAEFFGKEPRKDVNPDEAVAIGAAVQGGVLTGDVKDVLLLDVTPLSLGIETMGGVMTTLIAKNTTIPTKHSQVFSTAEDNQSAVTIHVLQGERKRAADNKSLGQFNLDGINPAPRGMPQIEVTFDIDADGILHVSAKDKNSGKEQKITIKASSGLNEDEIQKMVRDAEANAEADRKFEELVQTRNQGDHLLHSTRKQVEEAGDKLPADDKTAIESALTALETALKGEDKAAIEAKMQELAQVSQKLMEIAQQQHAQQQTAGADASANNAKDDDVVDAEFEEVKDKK
Protocol: (§1) ATPase activity of E. coli and S. aureus chaperones was studied in the presence of an AMP using a 384-well plate colorimetric assay ([Chang et al., 2008]; [Zahn et al., 2013]). […] Each sample was prepared in triplicates on the same plate. The reaction was started by addition of ATP dissolved in assay buffer (5 µL, 4 mmol/L) and the plate centrifuged (500 × g, 2 min; Allegra™ 21R, Beckmann Coulter, Krefeld, Germany) before incubated (37°C, 2 h). The released phosphate was quantified using an external phosphate dilution series (10–200 µmol/L KH2PO4 in assay buffer) prepared on each plate and treated equally as the samples. The reaction was stopped by adding assay buffer (80 µL) to all samples except the phosphate dilution series. […] After 15 min, the absorbance was recorded at 620 nm on the […]™ microplate reader. […]
(§2) The impact of ARV-1502 and its analogs on the ATPase activity of DnaK was investigated in 384-well plates using the malachite green absorbance assay, which quantitates phosphate (Pi) cleaved from ATP confirming for example the ATPase activity of DnaK. The established assay allowed a robust and reproducible quantitation of phosphate from 10 to 150 µmol/L and was easy to handle (Supplementary Figure S3) providing the intended high-throughput screening. […]

[2] = biological target: T2, S. aureus DnaK (Staphylococcus aureus, UniProt P99110); assay: as above; format: biochemical; conditions: ARV-1502 concentration series, plateau
T2 construct: His6-tag with TEV site ([…]) (N, cleaved yes); made in house; host or cells: E. coli (DE3) Rosetta pLysS
T2 sequence (P99110 whole entry): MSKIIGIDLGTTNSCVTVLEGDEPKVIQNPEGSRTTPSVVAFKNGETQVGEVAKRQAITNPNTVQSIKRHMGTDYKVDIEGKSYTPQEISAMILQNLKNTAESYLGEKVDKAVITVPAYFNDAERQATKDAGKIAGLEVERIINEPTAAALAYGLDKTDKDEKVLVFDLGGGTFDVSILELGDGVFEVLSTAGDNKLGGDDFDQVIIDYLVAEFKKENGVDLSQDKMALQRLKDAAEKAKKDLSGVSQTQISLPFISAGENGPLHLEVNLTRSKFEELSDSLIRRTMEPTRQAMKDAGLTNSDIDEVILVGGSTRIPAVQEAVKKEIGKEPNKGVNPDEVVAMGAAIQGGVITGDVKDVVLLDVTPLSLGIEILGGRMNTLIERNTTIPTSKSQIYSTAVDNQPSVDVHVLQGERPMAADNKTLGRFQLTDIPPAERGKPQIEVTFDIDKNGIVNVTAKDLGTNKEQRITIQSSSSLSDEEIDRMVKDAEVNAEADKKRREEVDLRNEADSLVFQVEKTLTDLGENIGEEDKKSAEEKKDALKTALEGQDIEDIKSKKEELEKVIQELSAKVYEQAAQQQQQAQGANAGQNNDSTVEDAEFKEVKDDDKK
Protocol: as §1, §2

[3] = system: E. coli JW0013 ∆dnaK; conditions: 25% MHB2, 37°C, 20 h
[4] = biological target: T3, E. coli DnaK/DnaJ/GrpE (Escherichia coli, UniProt P0A6Y8); assay: Fluorescence polarization Kd with Cf-labeled peptide, full chaperone system; format: binding; conditions: ratio of Kd
T3 construct: made in house; host or cells: E. coli (DE3) Rosetta pLysS
T3 sequence (P0A6Y8 whole entry): as the sequence (P0A6Y8 whole entry) above
Protocol: (§3) Dissociation (Kd) and inhibitory constants (Ki) were measured using a previously reported protocol with slight modifications ([Krizsan et al., 2015]; [Kolano et al., 2020]). Briefly, black 384-well plates (flat bottom, Greiner Bio-One GmbH, Frickenhausen, Germany) were blocked with 0.5% (w/v) casein in phosphate buffered saline (PBS; 10 mmol/L Na2HPO4, 0.2 mmol/L KH2PO4, 137 mmol/L NaCl, 2.7 mmol/L KCl, pH 7.4) containing 0.05% (w/v) Tween® 20 (PBST) at 4°C overnight and washed three times with PBST. […] The 5 (6)-carboxyfluorescein-labeled peptide was added (20 μL/well, 40 nmol/L), incubated (2 h, 28°C, dark), and the fluorescence polarization recorded at an excitation wavelength (λ ex) of 485 nm and an emission wavelength (λem) of 535 nm using a […] ™ microplate reader (Beckman Coulter, Krefeld, Germany). Ki values were determined using a twofold dilution series of unlabeled peptide (20 µL/well) and DnaK (10 µL/well). The plate was incubated at 28°C in the dark for 90 min before the Cf-labeled peptides were added (10 µL/well, 80 nmol/L). After a second incubation (90 min, 28°C), the fluorescence polarization was recorded (λ ex = 485 nm, λ em = 535 nm). Dissociation and inhibitory constants were calculated by fitting the data with a variable slope parameter [y = min + (max- min)/(1+(x/Kd) ^−Hill slope)] using SigmaPlot 13 (Systat Software Inc., San Jose, CA, United States).

[5] = biological target: T2, S. aureus DnaK; assay: Fluorescence polarization Kd with Cf-labeled peptide; format: binding
Protocol: as §3

[6] = biological target: E. coli DnaJ (Escherichia coli, UniProt P08622); assay: as above; conditions: E. coli proteins, ratio of Kd
E. coli DnaJ, sequence (P08622 whole entry): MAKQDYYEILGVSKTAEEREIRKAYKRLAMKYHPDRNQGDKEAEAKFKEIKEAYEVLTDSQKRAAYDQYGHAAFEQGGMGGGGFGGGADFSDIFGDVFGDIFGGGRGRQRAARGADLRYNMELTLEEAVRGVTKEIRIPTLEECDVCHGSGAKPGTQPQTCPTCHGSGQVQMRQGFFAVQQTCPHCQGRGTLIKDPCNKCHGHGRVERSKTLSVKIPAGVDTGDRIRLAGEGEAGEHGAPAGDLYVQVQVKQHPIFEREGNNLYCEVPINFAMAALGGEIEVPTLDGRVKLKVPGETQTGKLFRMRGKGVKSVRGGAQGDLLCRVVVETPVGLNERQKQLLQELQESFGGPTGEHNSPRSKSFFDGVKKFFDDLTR
Protocol: as §3

[7] = biological target: E. coli GrpE (Escherichia coli, UniProt P09372); assay: as above; conditions: E. coli proteins, ratio of Kd
E. coli GrpE, sequence (P09372 whole entry): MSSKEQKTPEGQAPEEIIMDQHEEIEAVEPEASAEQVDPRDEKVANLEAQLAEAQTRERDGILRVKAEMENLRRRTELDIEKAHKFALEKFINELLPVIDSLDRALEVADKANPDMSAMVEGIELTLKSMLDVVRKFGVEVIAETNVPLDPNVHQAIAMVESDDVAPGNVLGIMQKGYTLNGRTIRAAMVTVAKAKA
Protocol: as §3

[8] = biological target: S. aureus DnaJ (Staphylococcus aureus, UniProt P63971); assay: as above; conditions: FP, * = upper plateau not reached, Kd only approximate
S. aureus DnaJ, sequence (P63971 whole entry): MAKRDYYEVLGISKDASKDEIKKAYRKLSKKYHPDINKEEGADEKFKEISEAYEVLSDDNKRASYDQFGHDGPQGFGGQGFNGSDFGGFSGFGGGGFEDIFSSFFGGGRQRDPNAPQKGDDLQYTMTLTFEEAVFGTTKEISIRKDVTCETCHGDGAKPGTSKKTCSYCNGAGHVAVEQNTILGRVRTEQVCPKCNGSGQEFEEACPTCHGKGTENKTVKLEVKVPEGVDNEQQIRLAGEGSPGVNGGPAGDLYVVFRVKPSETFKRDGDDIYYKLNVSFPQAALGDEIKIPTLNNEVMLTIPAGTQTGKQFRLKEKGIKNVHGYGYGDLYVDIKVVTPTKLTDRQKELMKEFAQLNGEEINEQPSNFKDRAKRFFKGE
Protocol: as §3

[9] = biological target: T1, E. coli DnaK; format: binding
Protocol: The plate was incubated (90 min, 28°C, dark) and Cf-ARV-1502 (80 nmol/L; 10 µL/well) added. […] Each peptide was screened in duplicate. Control samples either lacked the unlabeled peptide (maximum) or contained Cf-ARV-1502 in buffer (minimum).
The quality of the experimental set up was evaluated by the Z′ factor ([Zhang et al., 1999]) (Supplementary Table S2). […] The obtained FP-values were normalized to the FP-values determined for lead sequence ARV-1502.

[10] = system: E. coli BW25113; conditions: 25% MHB2, 7.5 × 10^6 cfu/mL, 37°C, 20 h
Protocol: Minimal inhibitory concentrations (MICs) were determined using a liquid broth micro dilution assay in sterile 96-well plates (polystyrene F-bottom, Greiner Bio-One GmbH) and a total volume of 100 μL per well. […] Overnight cultures of bacteria, i.e., E. coli BW25113 or S. aureus DSM 6247, grown in 25% MHB2 were diluted 30-fold in 25% MHB2. After an incubation period of 4 h (37°C, 200 rpm), cells were diluted to 1.5 × 10^7 cfu/mL, based on a McFarland test, and 50 μL were added to each well (final concentration of 7.5 × 10^6 cfu/mL per well). The plates were incubated (37°C, 20 h) and the optical density was determined at 595 nm using the […]™ microplate reader. The MIC was defined as the lowest peptide concentration preventing visible bacterial growth.

[11] = biological target: T2, S. aureus DnaK; assay: FP peptide binding screening against Cf-ARV-1502; conditions: screening: DnaK 16 µmol/L, unlabeled peptide 35 µmol/L, duplicate, below 1 = better than ARV-1502

In the case of CC(C)C[C@H](NC(=O)[C@H](Cc1ccc(O)cc1)NC(=O)[C@@H]1CCCN1C(=O)[C@H](CCCNC(=N)N)NC(=O)[C@@H]1CCCN1C(=O)[C@H](CCCCN)NC(=O)[C@H](CC(=O)O)NC(=O)[C@@H]1CCCN1C(=O)[C@H](CCCNC(=N)N)NC(=O)C1(N)CCCCC1)C(=O)N1CCC[C@H]1C(=O)N[C@@H](CCCNC(=N)N)C(=O)N1CCC[C@H]1C(=O)N[C@@H](CCCNC(=N)N)C(=O)N1CCC[C@H]1C(=O)N1CCC[C@H]1C(=O)N[C@@H](CCCNC(=N)N)C(=O)N1CCC[C@H]1C(=O)N[C@H](C(=O)N[C@@H](CCCNC(=N)N)C(N)=O)C(C)C [ARV-1502] (H-[Ac6c]RPDKPRPYLPRPRPPRPVR-NH2), the “increase of intrinsic ATPase activity of E. coli DnaK” value [1] is reported as roughly 250%, the “stimulation of intrinsic ATPase activity of S. aureus DnaK” value [2] is reported as 50% and the “MIC, E. coli JW0013 ∆dnaK” value [3] is reported as 4 to 8 µg/mL.
CC(C)C[C@H](NC(=O)[C@H](Cc1ccc(O)cc1)NC(=O)[C@@H]1CCCN1C(=O)[C@H](CCCNC(=N)N)NC(=O)[C@@H]1CCCN1C(=O)[C@H](CCCCN)NC(=O)[C@H](CC(=O)O)NC(=O)[C@@H]1CCCN1C(=O)[C@H](CCCNC(=N)N)NC(=O)C1(NC(=O)c2ccc3c(c2)C(=O)OC32c3ccc(O)cc3Oc3cc(O)ccc32)CCCCC1)C(=O)N1CCC[C@H]1C(=O)N[C@@H](CCCNC(=N)N)C(=O)N1CCC[C@H]1C(=O)N[C@@H](CCCNC(=N)N)C(=O)N1CCC[C@H]1C(=O)N1CCC[C@H]1C(=O)N[C@@H](CCCNC(=N)N)C(=O)N1CCC[C@H]1C(=O)N[C@H](C(=O)N[C@@H](CCCNC(=N)N)C(N)=O)C(C)C [Cf-ARV-1502] (5FAM-[Ac6c]RPDKPRPYLPRPRPPRPVR-NH2) was tested, and the “fold higher Kd for E. coli DnaK/DnaJ/GrpE-system than for DnaK alone” value [4] was 15 fold, the “times weaker binding to S. aureus DnaK than to E. coli DnaK” value ([5]; ratio of Kd) was “around 100 times” and the “fold weaker binding to DnaJ than to DnaK” value [6] was roughly 150 fold. For the same molecule, the “fold weaker binding to GrpE than to DnaK” value [7] was ~1,000 fold and the “Kd, S. aureus DnaJ” value [8] was “no fit”.
With CC(C)C[C@H](NC(=O)[C@H](Cc1ccc(O)cc1)NC(=O)[C@@H]1CCCN1C(=O)[C@H](CCCNC(=N)N)NC(=O)[C@@H]1CCCN1C(=O)[C@H](CCCCN)NC(=O)[C@H](CCCCN)NC(=O)[C@@H]1CCCN1C(=O)[C@H](CCCNC(=N)N)NC(=O)C1(N)CCCCC1)C(=O)N1CCC[C@H]1C(=O)N[C@@H](CC(C)C)C(=O)N1CCC[C@H]1C(=O)N[C@@H](CCCNC(=N)N)C(=O)N1CCC[C@H]1C(=O)N1CCC[C@H]1C(=O)N[C@@H](CCCNC(=N)N)C(=O)N1CCC[C@H]1C(=O)N[C@H](C(=O)N[C@@H](CCCNC(=N)N)C(N)=O)C(C)C [compound 45] (H-[Ac6c]RPKKPRPYLPLPRPPRPVR-NH2) the “DnaK binding in the screening, in words” value ([9]; FP screening, DnaK variant not stated at the place) was “best binding”, the “MIC, E. coli BW25113” value [10] was greater than 128 µg/mL and the “MIC, E. coli JW0013 ∆dnaK” value [3] was greater than 128 µg/mL.
CC(C)C[C@H](NC(=O)[C@H](Cc1ccc(O)cc1)NC(=O)[C@@H]1CCCN1C(=O)[C@H](CCCNC(=N)N)NC(=O)[C@@H]1CCCN1C(=O)[C@H](Cc1ccccc1)NC(=O)[C@H](Cc1ccccc1)NC(=O)[C@@H]1CCCN1C(=O)[C@H](CCCNC(=N)N)NC(=O)C1(N)CCCCC1)C(=O)N1CCC[C@H]1C(=O)N[C@@H](CC(C)C)C(=O)N1CCC[C@H]1C(=O)N[C@@H](CCCNC(=N)N)C(=O)N1CCC[C@H]1C(=O)N1CCC[C@H]1C(=O)N[C@@H](CCCNC(=N)N)C(=O)N1CCC[C@H]1C(=O)N[C@H](C(=O)N[C@@H](CCCNC(=N)N)C(N)=O)C(C)C [peptide 102] (H-[Ac6c]RPFFPRPYLPLPRPPRPVR-NH2) was tested, and the “fold lower Kd than lead structure ARV-1502, S. aureus DnaK” value ([5]; ratio of Kd of Cf-labeled peptides) was 20 fold, the “binding to E. coli DnaK, FP-value normalized to ARV-1502” value [9] was “best binders” and the “binding to S. aureus DnaK, FP-value normalized to ARV-1502” value [11] was “best binders”. For the same molecule, the “MIC, E. coli JW0013 ∆dnaK” value [3] was 32 µg/mL (≈ 12.9 µM).
